# Results: patent publication US12410399B2, “Compositions and methods for treating retinal diseases” (The Regents of the University of California, priority 2011, dated 2025)
# Assays:
# [1] = tested on: hRPCs; assay: hRPC culture medium and supplement comparison (yield, proliferation); format: cell-based, human; conditions: supplement added to culture medium every two days
# Procedure: Various serum- and xeno-free cell culture media were tested to determine the optimum condition for propagating RPCs, including DMEM/FF12 (standard, Advanced and KnockOut; Invitrogen), Neurobasal (Invitrogen), Ultraculture (Lonza), and ReNcell (Chemicon). […] “SM” as provided herein refers to standard growth medium based on DMEM/FF12. “UL” is referred to herein as growth medium using Ultraculture as the base medium. Serum-free media was used in the absence of antibiotics or with antibiotics for first two weeks, followed by antibiotic-free media for about 6 weeks. No antifungal agents were used. […] For base medium, standard DMEM/F12, a media supplemented with N2 Supplement, growth factors, glutamine or GLUTAMAX™ (GlutaMax™), was compared with “Advanced DMEM/FF12”, supplemented in the same way.
# The effects of cell culture supplementation were also explored. To that end, the N2 supplement was also compared with the B27 xeno-free supplement. […] The effects of additional vitamin C were also tested. A vitamin C supplement was added to the culture medium every two days. […] Finally, supplementation with albumin was tested.
# The osmolarity of the cell culture medium was also examined by using media of differing osmolarity (osm), in combination with different commercially available supplements.
# [2] = tested on: hRPC; assay: steroid toxicity test on hRPCs (CCK-8 cytotoxicity); format: cell-based, human
# Procedure: The cells were also subjected to a steroid toxicity test, since steroids are often used in patients at the time of transplantation.
# Cell Counting Kit-8 (CCK-8; Dojindo Molecular Technologies Inc., Gaithersburg, MD) was used to determine cytotoxicity of RPCs. The kit uses WST-8, which, upon bioreduction in the presence of the electron carrier 1-methoxy PMS, produces a water-soluble colored formazan. Ninety-six well plates containing 90 μl of cell suspension per well were inoculated with 10 μl of CCK-8 pre-packaged solution. The plates were incubator for 2 hours and the OD450 of the supernatant was measured. Each experiment was performed in quadruplicate on at least three separate experiments.
SMILES,improvement of hRPC yield [1],effect on cell proliferation ([2]; clinical doses),effect on donor cell viability ([2]; high doses (about >10 times the expected clinical dose))
O=C1O[C@H]([C@@H](O)CO)C(O)=C1O [vitamin C],approximately 30%,,
CC1(C)O[C@@H]2C[C@H]3[C@@H]4CCC5=CC(=O)C=C[C@]5(C)[C@@]4(F)[C@@H](O)C[C@]3(C)[C@]2(C(=O)CO)O1 [triamcinolone acetonide],,did not appear to affect cell proliferation,may decrease donor cell viability
